ChEMBL document CHEMBL4152347 (J Med Chem, 2018)
≈ marks a conversion by molar mass, not a printed value.

Columns and labels:
[1] = AUC (0 to infinity) in Sprague-Dawley rat at 5 mg/kg, id; assay type: ADME, organism-based; parameters: dose 5 mg/kg, time infinity; conditions: in vivo
[2] = Cmax in beagle dog at 5 mg/kg, po administered via gavage as microsuspension along with high fat meal; assay type: ADME, organism-based, Canis lupus familiaris; parameters: dose 5 mg/kg, route oral; conditions: in vivo
[3] = Tmax in beagle dog at 5 mg/kg, po administered via gavage as solution; assay type: ADME, organism-based, Canis lupus familiaris; conditions: in vivo
in vitro [4] = conditions: human, MT2 cells
Description: Cytotoxicity against human MT2 cells assessed as reduction in cell viability

[5] = Stability of the compound in human plasma at 1 uM after 2 hrs by LC-MS/MS analysis; assay type: ADME, cell-free
[6] = Tmax in MDR1 a/b knockout mouse at 5 mg/kg, po administered via gavage; assay type: ADME, organism-based; conditions: in vivo
[7] = AUC (0 to infinity) in beagle dog at 5 mg/kg, po administered via gavage as microsuspension pre-treated with 6 ug/kg, im pentagastrin 15 to 30 mins before compound dosing; assay type: ADME, organism-based, Canis lupus familiaris; conditions: in vivo
[8] = Cmax in Sprague-Dawley rat at 5 mg/kg, po; assay type: ADME, organism-based; parameters: dose 5 mg/kg, route oral; conditions: in vivo
[9] = Half life in mouse liver microsomes at 0.5 uM after 1 hr in presence of NADPH by LC-MS/MS analysis; assay type: ADME, microsome
Salmonella typhimurium [10] = assay: Mutagenicity in Salmonella typhimurium TA98 in absence of Aroclor 1254-induced rat liver S9 fraction at up to 1600 ug/plate; assay type: toxicity, organism-based; conditions: salmonella enterica subsp. enterica serovar typhimurium
[11] = Half life in rat hepatocytes at 0.5 uM after 1 hr in presence of NADPH by LC-MS/MS analysis; assay type: ADME, cell-based, Hepatocyte
[12] = Total plasma clearance in CD1 mouse at 1 mg/kg, iv; assay type: ADME, organism-based
[13] = Cmax in beagle dog at 5 mg/kg, po administered via gavage as microsuspension pre-treated with 40 mg famotidine in capsule form 1 hr before compound dosing; assay type: ADME, organism-based, Canis lupus familiaris; parameters: dose 5 mg/kg, route oral; conditions: in vivo
[14] = AUC (0 to infinity) in CD1 mouse at 1 mg/kg, iv; assay type: ADME, organism-based; parameters: dose 1 mg/kg, route intravenous, time infinity; conditions: in vivo
[15] = Oral bioavailability in CD1 mouse at 5 mg/kg; assay type: ADME, organism-based; conditions: in vivo
[16] = Cmax in MDR1 a/b knockout mouse at 5 mg/kg, po administered via gavage; assay type: ADME, organism-based; parameters: dose 5 mg/kg, route oral; conditions: in vivo
[17] = Oral bioavailability in MDR1 a/b knockout mouse at 5 mg/kg administered via gavage; assay type: ADME, organism-based; conditions: in vivo
Canis familiaris [18] = assay: Tmax in beagle dog at 1 mg/kg, iv; assay type: ADME, organism-based, Canis lupus familiaris; conditions: in vivo
[19] = AUC (0 to infinity) in Sprague-Dawley rat at 5 mg/kg, po treated with 10 mg/kg elacridar immediately after compound dosing; assay type: ADME, organism-based; parameters: dose 5 mg/kg, route oral, time infinity; conditions: in vivo, with elacridar 10 mg/kg
[20] = Total plasma clearance in Sprague-Dawley rat at 1 mg/kg, iv; assay type: ADME, organism-based
[21] = Total plasma clearance in cynomolgus monkey at 1 mg/kg, iv; assay type: ADME, organism-based, Macaca fascicularis
[22] = Volume of distribution at steady state in CD1 mouse at 1 mg/kg, iv; assay type: ADME, organism-based; conditions: in vivo, read-out: Vdss
[23] = Oral bioavailability in cynomolgus monkey at 5 mg/kg administered via gavage; assay type: ADME, organism-based, Macaca fascicularis; conditions: in vivo
[24] = Tmax in beagle dog at 5 mg/kg, po administered via gavage as microsuspension along with high fat meal; assay type: ADME, organism-based, Canis lupus familiaris; conditions: in vivo
Gag-Pol polyprotein [25] = molecular target: Gag-Pol polyprotein (Human immunodeficiency virus type 1 group M subtype B (isolate HXB2)(HIV-1), UniProt P04585, V370A)
in vivo = conditions: Sprague-Dawley, rat, po, 5 mg/kg
[26] = AUC (0 to infinity) in cynomolgus monkey at 5 mg/kg, po administered via gavage; assay type: ADME, organism-based, Macaca fascicularis; parameters: dose 5 mg/kg, route oral, time infinity; conditions: in vivo
[27] = Tmax in Sprague-Dawley rat at 5 mg/kg, po treated with 10 mg/kg elacridar immediately after compound dosing; assay type: ADME, organism-based; conditions: in vivo, with elacridar 10 mg/kg
[28] = Tmax in cynomolgus monkey at 5 mg/kg, po administered via gavage; assay type: ADME, organism-based, Macaca fascicularis; conditions: in vivo
in vitro [29] = conditions: human, liver microsomes
Description: Half life in human liver microsomes at 0.5 uM after 1 hr in presence of NADPH by LC-MS/MS analysis

[30] = Half life in dog liver microsomes at 0.5 uM after 1 hr in presence of NADPH by LC-MS/MS analysis; assay type: ADME, Canis lupus familiaris, microsome
Salmonella typhimurium [31] = assay: Mutagenicity in Salmonella typhimurium TA98 in presence of Aroclor 1254-induced rat liver S9 fraction at up to 1600 ug/plate; assay type: toxicity, organism-based; conditions: salmonella enterica subsp. enterica serovar typhimurium
[32] = Solubility of compound in fasted state simulated intestinal fluid at pH 6.5; assay type: physicochemical
[33] = Protein binding in mouse serum at 53 nM after 1 hr by ultracentrifugation assay; assay type: ADME, cell-free; conditions: read-out: PB (converted)
[34] = AUC (0 to infinity) in cynomolgus monkey at 1 mg/kg, iv; assay type: ADME, organism-based, Macaca fascicularis; parameters: dose 1 mg/kg, time infinity, route intravenous; conditions: in vivo
[35] = Half life in dog hepatocytes at 0.5 uM after 1 hr in presence of NADPH by LC-MS/MS analysis; assay type: ADME, cell-based, Canis lupus familiaris, Hepatocyte
Salmonella typhimurium [36] = assay: Mutagenicity in Salmonella typhimurium TA100 in absence of Aroclor 1254-induced rat liver S9 fraction at up to 1600 ug/plate; assay type: toxicity, organism-based; conditions: salmonella enterica subsp. enterica serovar typhimurium
[37] = AUC (0 to infinity) in beagle dog at 5 mg/kg, po administered via gavage as microsuspension pre-treated with 40 mg famotidine in capsule form 1 hr before compound dosing; assay type: ADME, organism-based, Canis lupus familiaris; parameters: dose 5 mg/kg, time infinity, route oral; conditions: in vivo
[38] = molecular target: Human immunodeficiency virus type 1 Gag protein (Human immunodeficiency virus 1, UniProt Q77YG1)
Description: Binding affinity to wild type HIV1 gag polyprotein containing viral like particle

[39] = Tmax in CD1 mouse at 5 mg/kg, po administered via gavage; assay type: ADME, organism-based; conditions: in vivo
[40] = Cmax in Sprague-Dawley rat at 5 mg/kg, id; assay type: ADME, organism-based; parameters: dose 5 mg/kg; conditions: in vivo
[41] = Cmax in beagle dog at 5 mg/kg, po administered via gavage as microsuspension pre-treated with 6 ug/kg, im pentagastrin 15 to 30 mins before compound dosing; assay type: ADME, organism-based, Canis lupus familiaris; conditions: in vivo
Canis familiaris [42] = assay: AUC (0 to infinity) in beagle dog at 5 mg/kg, po administered via gavage as microsuspension along with high fat meal; assay type: ADME, organism-based, Canis lupus familiaris; parameters: dose 5 mg/kg, time infinity, route oral; conditions: in vivo
[43] = Cmax in beagle dog at 5 mg/kg, po administered via gavage as solution; assay type: ADME, organism-based, Canis lupus familiaris; parameters: dose 5 mg/kg, route oral; conditions: in vivo
Gag-Pol polyprotein [44] = molecular target: Gag-Pol polyprotein (Human immunodeficiency virus type 1 group M subtype B (isolate HXB2)(HIV-1), UniProt P04585)
Description: Binding affinity to HIV1 gag polyprotein delta V370 mutant containing viral like particle

[45] = Tmax in beagle dog at 5 mg/kg, po administered via gavage as microsuspension pre-treated with 6 ug/kg, im pentagastrin 15 to 30 mins before compound dosing; assay type: ADME, organism-based, Canis lupus familiaris; conditions: in vivo
[46] = Solubility of compound in fed state simulated intestinal fluid at pH 5; assay type: physicochemical
Canis familiaris [47] = assay: Half life in beagle dog at 1 mg/kg, iv; assay type: ADME, organism-based, Canis lupus familiaris; conditions: in vivo
Cytochrome P450 3A4 = Cytochrome P450 3A4 (Homo sapiens, UniProt P08684); assay: Drug metabolism assessed as recombinant CYP3A4 (unknown origin)-mediated oxidative metabolism; assay type: ADME; conditions: recombinant enzyme
Chain of Cytochrome P450 3A4 (P08684 whole entry): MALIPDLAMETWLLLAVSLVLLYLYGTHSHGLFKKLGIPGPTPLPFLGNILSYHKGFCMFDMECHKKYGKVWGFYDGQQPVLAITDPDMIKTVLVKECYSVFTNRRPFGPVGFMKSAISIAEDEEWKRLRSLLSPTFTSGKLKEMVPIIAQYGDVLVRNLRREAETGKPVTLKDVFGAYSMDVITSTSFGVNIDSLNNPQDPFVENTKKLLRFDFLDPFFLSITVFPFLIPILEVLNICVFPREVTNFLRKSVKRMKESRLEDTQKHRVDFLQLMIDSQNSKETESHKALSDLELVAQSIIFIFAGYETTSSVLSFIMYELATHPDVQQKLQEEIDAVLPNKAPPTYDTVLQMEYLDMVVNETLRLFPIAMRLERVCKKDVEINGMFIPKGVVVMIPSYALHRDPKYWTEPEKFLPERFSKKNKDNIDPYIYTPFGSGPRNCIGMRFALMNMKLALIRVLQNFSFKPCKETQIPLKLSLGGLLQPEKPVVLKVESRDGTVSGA

[48] = Bioavailability in Sprague-Dawley rat at 5 mg/kg, id; assay type: ADME, organism-based; conditions: in vivo
[49] = Oral bioavailability in beagle dog at 5 mg/kg administered via gavage as microsuspension pre-treated with 6 ug/kg, im pentagastrin 15 to 30 mins before compound dosing; assay type: ADME, organism-based, Canis lupus familiaris; conditions: in vivo
[50] = AUC (0 to infinity) in CD1 mouse at 5 mg/kg, po administered via gavage; assay type: ADME, organism-based; parameters: dose 5 mg/kg, time infinity, route oral; conditions: in vivo

SMILES: C=C(C)[C@@H]1CC[C@]2(NCCN3CCS(=O)(=O)CC3)CC[C@]3(C)[C@H](CC[C@@H]4[C@@]5(C)CC=C(c6ccc(C(=O)O)cc6)C(C)(C)[C@@H]5CC[C@]43C)[C@@H]12 [BMS-955176]
- AUC(0-inf) [1]: 19.9 µM·h
- Cmax [2]: 10.2 µM
- Tmax [3]: 12.7 h
- CC50 (in vitro [4]): 9200 nM
- Stability [5]: Stable
- Tmax [6]: 3 h
- AUC(0-inf) [7]: 276 µM·h
- Cmax [8]: 1.2 µM
- half-life at 0.5 µM [9]: > 2 h
- Activity (Salmonella typhimurium [10]): Non-Toxic
- half-life at 0.5 µM [11]: > 2 h
- clearance [12]: 1.1 mL/min/kg
- Cmax [13]: 4.04 µM
- AUC(0-inf) [14]: 21.6 µM·h
- bioavailability [15]: 26.8%
- Cmax [16]: 4.02 µM
- bioavailability [17]: 45%
- Tmax (Canis familiaris [18]): 187 h
- AUC(0-inf) [19]: 47.4 µM·h
- clearance [20]: 2.2 mL/min/kg
- clearance [21]: 1.9 mL/min/kg
- Vd [22]: 0.82 L/kg
- bioavailability [23]: 4%
- Tmax [24]: 10.5 h
- Kd (Gag-Pol polyprotein [25]): 6.5 nM
- AUC(0-t) at 24 h (in vivo): 14.2 µM·h
- AUC(0-inf) [26]: 1 µM·h
- Tmax [27]: 7.3 h
- Tmax [28]: 3.3 h
- half-life at 1 h, 0.5 µM (in vitro [29]): > 2 h
- half-life at 0.5 µM [30]: > 2 h
- Activity (Salmonella typhimurium [31]): Non-Toxic
- solubility [32]: 280 µg/mL (≈ 405 µM)
- fraction unbound at 1 h, 0.053 µM [33]: 0.106
- AUC(0-inf) [34]: 13.6 µM·h
- half-life at 0.5 µM [35]: > 2 h
- Activity (Salmonella typhimurium [36]): Non-Toxic
- AUC(0-inf) [37]: 236 µM·h
- Kd [38]: 3.2 nM
- Tmax [39]: 3 h
- Cmax [40]: 1.7 µM
- Cmax [41]: 4.43 µM
- AUC (Canis familiaris [42]): 643 µM·h
- Cmax [43]: 0.56 µM
- Kd (Gag-Pol polyprotein [44]): 33.6 nM
- Tmax [45]: 10.5 h
- solubility [46]: 1020 µg/mL (≈ 1480 µM)
- t1/2 (Canis familiaris [47]): 7.8 min
- Drug metabolism (Cytochrome P450 3A4): Metabolite_Detected
- bioavailability [48]: 36%
- bioavailability [49]: 26%
- AUC(0-inf) [50]: 28.9 µM·h
